The values that follow come from patent publication US11667602B2, “Compounds and their use” (AstraZeneca AB, priority 2020, dated 2023).

Each structure is given as a SMILES string. Values after ≈ are worked out from the molar mass of the structure shown.

In general, hepatocyte CLint refers to a measure of how fast metabolising enzymes remove a compound, apart from limits set by blood flow. A lower hepatocyte CLint goes with slow turnover. The term microsomal CLint denotes a measure of how fast metabolising enzymes remove a compound, apart from limits set by blood flow. Read a low microsomal CLint as slow turnover. What is called solubility is the concentration that dissolves in the medium under given conditions. Lower therefore signals a poorly soluble substance. In general, EC50 refers to the concentration needed to bring the measured effect to its halfway point.

The nature of series [1]: Human Plasma Protein Binding (Test B). In kind it is in vitro ADME. As to conditions: fraction unbound (fu). Summed up: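 Values given as % free (fu) in human plasma, using the method of Wernevik et al. (2020). For compounds tested more than once, the arithmetic mean is given.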
Series [2] in a line: Rat Hepatocyte Stability (Test E). The class given is in vitro ADME. The settings on record: rat, hepatocytes, geometric mean if run multiple times. Summed up: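 Intrinsic clearance in rat hepatocytes, expressed as μl/min/10^6 cells, following the literature integrated DMPK panel method. Repeat determinations combined as geometric mean.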
Series [3] is described as follows: Human Liver Microsomal Stability (Test C). The class given is in vitro ADME. As to conditions: human, liver microsomes. Summed up: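 CLint (μl/min/mg protein) derived from compound depletion in human liver microsomes following a published standardized early-DMPK protocol; replicate determinations given as arithmetic mean.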
In general terms: Microsomes from liver hold many membrane-bound enzymes, among them those of drug oxidation.

Another series can be described thus: Solubility (Test F). The class given is physicochemical. The settings on record: arithmetic mean if run multiple times. The method, then:
The assay was conducted according to the Solubility Assay described in pages 164-167 of Wernevik, J. et al., “A Fully Integrated Assay Panel for Early Drug Metabolism and Pharmacokinetics Profiling”, Assay and Drug Development Technologies, 2020, 18(4), 157-179. Data are reported in Table 36 as solubility ([…]. Where the assay was run multiple times for the same compound, the arithmetic mean is reported.

Series [4] in a line: Human Hepatocyte Stability (Test D). In kind it is in vitro ADME. The settings on record: human, cryopreserved pooled human hepatocytes (LiverPool 10-Donor), geometric mean if run multiple times. In short, it runs like this:
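Intrinsic clearance (μL/min/10^6 cells), derived as kV/N from the log-linear loss of parent compound. Compound incubated at 37 °C with cryopreserved pooled human hepatocytes, 0.25×10^6 cells in 0.25 mL L-15; dosing solution 100 μM in acetonitrile. Singlicate incubations, cassette LC-MS; repeats reported as geometric mean.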

The target in a further series is T1, human RXFP1 (Homo sapiens, UniProt Q9HBX9).
T1 sequence (Q9HBX9 1-757): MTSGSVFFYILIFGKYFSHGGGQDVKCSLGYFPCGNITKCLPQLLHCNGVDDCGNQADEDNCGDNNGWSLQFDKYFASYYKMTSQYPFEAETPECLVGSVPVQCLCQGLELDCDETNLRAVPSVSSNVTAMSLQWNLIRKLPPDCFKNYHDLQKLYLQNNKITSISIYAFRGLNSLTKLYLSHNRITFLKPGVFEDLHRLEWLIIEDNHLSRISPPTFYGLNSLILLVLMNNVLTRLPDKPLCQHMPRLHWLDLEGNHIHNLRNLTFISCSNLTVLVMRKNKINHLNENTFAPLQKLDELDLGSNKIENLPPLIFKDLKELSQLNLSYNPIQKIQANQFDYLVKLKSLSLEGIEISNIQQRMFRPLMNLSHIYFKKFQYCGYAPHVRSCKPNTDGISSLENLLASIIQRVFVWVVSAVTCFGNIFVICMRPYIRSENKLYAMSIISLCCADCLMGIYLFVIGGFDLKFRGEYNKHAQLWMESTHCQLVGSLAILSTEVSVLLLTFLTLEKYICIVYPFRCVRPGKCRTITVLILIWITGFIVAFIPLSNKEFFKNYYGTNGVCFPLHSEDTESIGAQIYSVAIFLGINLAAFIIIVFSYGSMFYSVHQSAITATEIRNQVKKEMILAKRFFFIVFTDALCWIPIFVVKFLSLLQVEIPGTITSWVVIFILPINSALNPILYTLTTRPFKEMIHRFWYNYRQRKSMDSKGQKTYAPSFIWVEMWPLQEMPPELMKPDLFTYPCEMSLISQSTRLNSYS
Description: RXFP1 Hu cAMP (Test A). In kind it is cell-based. Also noted: expressed in transfected cells; host or cells: Jump-In T-REx CHO-K1 cells (ThermoFisher), induced with 10 ng/ml doxycycline for 24 h. As to conditions: RXFP1 Hu cAMP; for EC50: read-out: Test A EC50. In short, it runs like this: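 Read-out is HTRF signal, inversely proportional to cAMP, converted to cAMP amount by standard curve. Stimulation occurred in inducible CHO-K1 cells expressing the human receptor with phosphodiesterases blocked by 0.5 mM IBMX.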

For the molecule `COc1cc(F)c(-c2ccc(C(N)=O)cc2)cc1C(=O)N[C@H]1[C@@H](C(=O)Nc2cccc(S(=O)(=O)C(F)(F)F)c2)[C@@H]2C=C[C@H]1C2` [Example 270, 6-Fluoro-4-methoxy-N3-((1R,2R,3S,4S)-3-((3-((trifluoromethyl)sulfonyl)phenyl)carbamoyl)bicyclo[2.2.1]hept-5-en-2-yl)-[1,1′-biphenyl]-3,4′-dicarboxamide], in series [1], the “Test B Human Plasma Protein Binding (% free)” value is on record as less than 0.26 % free. For the same molecule, in series [2], the hepatocyte CLint was 38 µL/min/1e6 cells. Further, the intrinsic metabolic clearance (microsomal CLint) in series [3] turned out to be 120 µL/min/mg. The molecule further came in with a solubility in the series “Solubility (Test F)” of 2 µM (≈ 1.26 µg/mL). This molecule returned a hepatocyte CLint at 1 µM in series [4] of 32 µL/min/1e6 cells. Also, on human RXFP1, the “Test A Sinf” value amounted to 107% and the EC50 came to 0.12 µM.
Turning to `COc1cc(C#N)c(O[C@H]2CC[C@@](C)(C(=O)O)CC2)cc1C(=O)N[C@@H]1[C@H]2CC[C@H](C2)[C@@H]1C(=O)NCC(C)(C)C(F)(F)F` [Example 624], the “Test B Human Plasma Protein Binding (% free)” value in series [1] came to 12 % free. The molecule also came in with a hepatocyte CLint in series [2] of 7.9 µL/min/1e6 cells. The intrinsic clearance (microsomal CLint) in series [3] is 16 µL/min/mg. In “Solubility (Test F)”, this molecule showed a solubility of 1000 µM (≈ 594 µg/mL). In series [4], this molecule registered a hepatocyte CLint at 1 µM of 3.3 µL/min/1e6 cells. Besides, on human RXFP1, the “Test A Sinf” value is 113% and the EC50 turned out to be 0.026 µM.
For `COc1cc(F)c(O[C@H]2CC[C@@H](C(=O)O)CC2)cc1C(=O)N[C@H]1[C@@H](C(=O)Nc2ccc(F)c(C(F)(F)F)c2)[C@@H]2C=C[C@H]1C2` (single isomer, unassigned) [Example 498], the “Test B Human Plasma Protein Binding (% free)” value in series [1] was 0.86 % free. The molecule also returned an intrinsic clearance (hepatocyte CLint) in series [2] of 17 µL/min/1e6 cells. The microsomal CLint in series [3] was 23 µL/min/mg. The molecule also gave a solubility in “Solubility (Test F)” of more than 980 µM. Also, the hepatocyte CLint at 1 µM in series [4] turned out to be 7.7 µL/min/1e6 cells. Besides, at human RXFP1, the “Test A Sinf” value is reported as 113% and the EC50 was more than 0.03 µM.
As to `COc1cc(F)c(-c2ccc(C(=O)O)cc2)cc1C(=O)N[C@@H]1[C@H]2CC[C@H](C2)[C@@H]1C(=O)Nc1cccc(S(=O)(=O)C(F)(F)F)c1` [Example 250], in series [1], the “Test B Human Plasma Protein Binding (% free)” value was less than 0.32 % free. Besides, the hepatocyte CLint in series [2] was determined as 18 µL/min/1e6 cells. The intrinsic metabolic clearance (microsomal CLint) in series [3] is 16 µL/min/mg. This molecule also showed a solubility in “Solubility (Test F)” of 900 µM (≈ 571 µg/mL). Also, the hepatocyte CLint at 1 µM in series [4] worked out at 32 µL/min/1e6 cells. Further, on human RXFP1, the “Test A Sinf” value was 101% and the EC50 worked out at 0.19 µM.
For `COc1cc(F)c(O[C@H]2CC[C@@H](C(=O)O)CC2)cc1C(=O)N[C@@H]1[C@H]2CC[C@H](C2)[C@@H]1C(=O)Nc1cccc(S(=O)(=O)C(F)(F)F)c1` [Example 491], the “Test B Human Plasma Protein Binding (% free)” value in series [1] stood at 2.1 % free. In series [2], this molecule gave a hepatocyte CLint of 23 µL/min/1e6 cells. The same molecule displayed an intrinsic metabolic clearance (microsomal CLint) in series [3] of 42 µL/min/mg. Moreover, the concentration in solution in the series “Solubility (Test F)” (solubility) was 550 µM (≈ 361 µg/mL). In addition, the hepatocyte CLint at 1 µM in series [4] stood at 15 µL/min/1e6 cells. Besides, at human RXFP1, the “Test A Sinf” value was 102% and the EC50 is 0.042 µM.
Consider `COc1cc(F)c(O[C@H]2CC[C@@H](C(=O)O)CC2)cc1C(=O)N[C@@H]1[C@H]2CC[C@H](C2)[C@@H]1C(=O)Nc1cccc(C(F)F)c1` [Example 10, (1S,4s)-4-(5-(((1S,2R,3S,4R)-3-((3-(Difluoromethyl)phenyl)carbamoyl)bicyclo[2.2.1]heptan-2-yl)carbamoyl)-2-fluoro-4-methoxyphenoxy)cyclohexane-1-carboxylic acid], for which the “Test B Human Plasma Protein Binding (% free)” value in series [1] is given as 2.2 % free. This molecule came in with a hepatocyte CLint in series [2] of 130 µL/min/1e6 cells. In addition, the intrinsic clearance (microsomal CLint) in series [3] was found to be 32 µL/min/mg. Moreover, the concentration in solution in “Solubility (Test F)” (solubility) was 750 µM (≈ 431 µg/mL). Also, the intrinsic metabolic clearance (hepatocyte CLint) at 1 µM in series [4] was 11 µL/min/1e6 cells. At human RXFP1, the “Test A Sinf” value is given as 104% and the EC50 was determined as 0.5 µM.
Regarding `COc1cc(Cl)c(O[C@H]2CC[C@@](C)(C(=O)O)CC2)cc1C(=O)N[C@@H]1[C@H]2CC[C@H](C2)[C@@H]1C(=O)NC12CC(F)(C1)C2` [Example 411], in series [1], the “Test B Human Plasma Protein Binding (% free)” value worked out at 1.8 % free. The molecule also displayed an intrinsic metabolic clearance (hepatocyte CLint) in series [2] of 17 µL/min/1e6 cells. Also, the microsomal CLint in series [3] was 7.9 µL/min/mg. In addition, the concentration in solution in “Solubility (Test F)” (solubility) was 710 µM (≈ 400 µg/mL). In series [4], this molecule displayed a hepatocyte CLint at 1 µM of 2.1 µL/min/1e6 cells. On human RXFP1, the “Test A Sinf” value is listed as 108% and the EC50 is 0.024 µM.
